Measurements published in ChEMBL document CHEMBL1201862, “PubChem BioAssay data set” (2004).
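96-well plates; 48 h exposure; 5 concentrations. Endpoints by linear interpolation between flanking doses. Not reached: highest tested concentration assigned. GI50 marks 50% less growth.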 Activity calls are given as the source filed them. Rule as the data show it: active = GI50 up to about 1.1 µM and inactive = higher.

How the values were obtained:
Experiment in all cases: NCI tumour cell line growth inhibition, 48 h
CAKI-1 = tested on: CAKI-1
CCRF-CEM = tested on: CCRF-CEM
EKVX = tested on: EKVX
HCC 2998 = tested on: HCC 2998
HL-60 = tested on: HL-60
HT-29 = tested on: HT-29
LOX IMVI = tested on: LOX IMVI
NCI-H226 = tested on: NCI-H226
OVCAR-4 = tested on: OVCAR-4
SF-268 = tested on: SF-268
SF-295 = tested on: SF-295
SN12C = tested on: SN12C
SR = tested on: SR
TK-10 = tested on: TK-10
UACC-62 = tested on: UACC-62
UO-31 = tested on: UO-31
RPMI-8226 = tested on: RPMI-8226

Measured: GI50

O=C(CC(O)(c1ccccc1)c1ccc(Cl)cc1)NC(=O)c1ccccc1O (centres undefined)
inactive: CAKI-1 3.95 µM | CCRF-CEM 4.41 µM | EKVX 20.7 µM | HCC 2998 4.99 µM | HL-60 4.6 µM | HT-29 18.8 µM | LOX IMVI 9.2 µM | NCI-H226 7.87 µM | OVCAR-4 5.74 µM | SF-268 7.28 µM | SF-295 4.4 µM | SN12C 3.76 µM | SR 11.6 µM | TK-10 13.2 µM | UACC-62 6.04 µM | UO-31 2.42 µM

O=C(Cc1nc2sc3c(c2c(=O)[nH]1)CCCC3)Nc1ccccc1
inactive: CAKI-1 > 100 µM | CCRF-CEM > 100 µM | EKVX > 100 µM | HCC 2998 > 100 µM | HL-60 > 100 µM | HT-29 > 100 µM | LOX IMVI > 100 µM | NCI-H226 > 100 µM | OVCAR-4 > 100 µM | RPMI-8226 > 100 µM | SF-268 > 100 µM | SF-295 > 100 µM | SN12C > 100 µM | TK-10 > 100 µM | UACC-62 > 100 µM

Cn1nc(-c2cccc(-c3nn(C)/c(=N\CCO)s3)n2)s/c1=N/CCO
inactive: CCRF-CEM > 100 µM | EKVX > 100 µM | HL-60 > 100 µM | HT-29 > 100 µM | LOX IMVI > 100 µM | NCI-H226 > 100 µM | OVCAR-4 > 100 µM | RPMI-8226 63 µM | SF-268 > 100 µM | SF-295 > 100 µM | SN12C > 100 µM | SR > 100 µM | UACC-62 > 100 µM

Cc1cc(C)c2c(c1)Nc1ccccc1P2c1ccccc1 (centres undefined)
inactive: CAKI-1 11 µM | EKVX 23.5 µM | HCC 2998 26.6 µM | HL-60 23.9 µM | HT-29 20.3 µM | LOX IMVI 27.2 µM | OVCAR-4 26.9 µM | RPMI-8226 3.89 µM | SF-268 59.6 µM | SF-295 20 µM | SN12C 9.82 µM | TK-10 40.2 µM | UACC-62 28.9 µM | UO-31 19.1 µM

COC(=O)n1c(CBr)c(Br)c2ccccc21
inactive: CAKI-1 23.8 µM | CCRF-CEM 23.9 µM | HCC 2998 32.6 µM | HL-60 22.4 µM | HT-29 63.7 µM | NCI-H226 13.1 µM | OVCAR-4 25.8 µM | RPMI-8226 21 µM | SF-268 25.6 µM | SF-295 23.7 µM | SR 24.8 µM | TK-10 33.1 µM | UACC-62 28.1 µM | UO-31 18.2 µM

CCCCCCCCOCC(O)CO (centres undefined)
inactive: CAKI-1 > 100 µM | CCRF-CEM 4.52 µM | EKVX > 100 µM | HCC 2998 89.5 µM | HL-60 > 100 µM | HT-29 > 100 µM | LOX IMVI > 100 µM | NCI-H226 84.9 µM | OVCAR-4 > 100 µM | RPMI-8226 44.6 µM | SF-268 > 100 µM | SF-295 > 100 µM | SN12C > 100 µM | SR 45.9 µM | TK-10 > 100 µM | UACC-62 > 100 µM | UO-31 > 100 µM

NCCCCC(=O)c1cccnc1
inactive: CAKI-1 > 100 µM | CCRF-CEM > 100 µM | EKVX > 100 µM | HL-60 > 100 µM | HT-29 > 100 µM | LOX IMVI > 100 µM | RPMI-8226 > 100 µM | SF-268 > 100 µM | SF-295 > 100 µM | SR > 100 µM | TK-10 > 100 µM | UACC-62 > 100 µM | UO-31 > 100 µM

C=CCCCn1ccc2ccccc21
inactive: CCRF-CEM > 100 µM | EKVX > 100 µM | HCC 2998 > 100 µM | HL-60 > 100 µM | HT-29 > 100 µM | LOX IMVI > 100 µM | NCI-H226 > 100 µM | RPMI-8226 > 100 µM | SF-268 > 100 µM | SF-295 > 100 µM | SN12C > 100 µM | SR > 100 µM | TK-10 > 100 µM | UACC-62 75.9 µM | UO-31 > 100 µM

CC(C)(CN1CCCCC1)C(=O)/C=C/c1ccc(Cl)cc1
inactive: CCRF-CEM 2.09 µM | EKVX 3.3 µM | HCC 2998 13.2 µM | HL-60 2.15 µM | HT-29 3.22 µM | LOX IMVI 2.84 µM | NCI-H226 4.41 µM | OVCAR-4 4.27 µM | RPMI-8226 2.94 µM | SF-268 3.34 µM | SF-295 3.03 µM | SN12C 2.61 µM | SR 2.58 µM | TK-10 15.3 µM | UACC-62 5.35 µM | UO-31 7.5 µM

CCCCCCCCCCCCCCCCCC(=O)OCC(C[As](=O)(O)O)OC(=O)CCCCCCCCCCCCCCCCC (centres undefined)
inactive: CAKI-1 65.5 µM | CCRF-CEM 39 µM | EKVX > 100 µM | HCC 2998 > 100 µM | HL-60 > 100 µM | HT-29 34.4 µM | NCI-H226 24.4 µM | OVCAR-4 > 100 µM | RPMI-8226 28.3 µM | SF-268 43.2 µM | SF-295 32.7 µM | SN12C 50.1 µM | SR 18.4 µM | TK-10 33.4 µM | UACC-62 > 100 µM | UO-31 > 100 µM

COC1=NN2C(OC)(c3ccccc3)c3c(-c4ccccc4)sc(-c4ccccc4)c3C2(c2ccccc2)S1 (centres undefined)
inactive: CAKI-1 > 100 µM | CCRF-CEM > 100 µM | HCC 2998 > 100 µM | HL-60 > 100 µM | HT-29 > 100 µM | LOX IMVI > 100 µM | SF-268 > 100 µM | SF-295 > 100 µM | SN12C > 100 µM | SR > 100 µM | TK-10 > 100 µM | UACC-62 > 100 µM | UO-31 > 100 µM

CC1O[C@@H]2CCCCC(=O)[C@]2(C)[C@H]1C (some centres undefined)
inactive: CAKI-1 > 100 µM | CCRF-CEM > 100 µM | EKVX > 100 µM | HCC 2998 > 100 µM | HL-60 > 100 µM | HT-29 > 100 µM | LOX IMVI > 100 µM | NCI-H226 > 100 µM | OVCAR-4 > 100 µM | RPMI-8226 > 100 µM | SF-295 > 100 µM | SN12C > 100 µM | TK-10 > 100 µM | UACC-62 > 100 µM | UO-31 > 100 µM

CN(C)CCC1(C2=CCCC2)CC/C(=C\c2ccc(Cl)cc2)C1=O (centres undefined)
inactive: CAKI-1 7.03 µM | CCRF-CEM 2.38 µM | EKVX 7.16 µM | HCC 2998 7.82 µM | HL-60 1.6 µM | HT-29 2.95 µM | LOX IMVI 10.1 µM | NCI-H226 14.2 µM | OVCAR-4 9.46 µM | RPMI-8226 5.73 µM | SF-268 11.8 µM | SF-295 7.82 µM | SN12C 11.9 µM | SR 4.51 µM | TK-10 11.1 µM | UACC-62 3.08 µM | UO-31 5.33 µM
